Measurements from patent US7772252B2, “Heterocyclic substituted carbonyl derivatives and their use as dopamine D3 receptor ligands” (Aventis Pharmaceuticals Inc., priority 2001, dated 2010).
Read-outs that look alike come from different tables or passages of the source.

Molecular target: T1, cloned human dopamine D3 receptors (Homo sapiens, UniProt P35462)
T1 construct: expressed in transfected cells; membrane homogenate
Experiment: [N-Methyl-3H]Spiroperidol binding to cloned human dopamine D3 receptors
From the text: [N-Methyl-^3H]Spiroperidol Binding to Cloned Human Dopamine D3 Receptors
This assay measures the in vitro activity of compounds on cloned human dopamine (D3) receptors and predicts the direct dopamine-blocking properties of putative neuropsychiatric agents at human dopamine D3 receptors.
The D3 gene was isolated from a human striatal cDNA library (Stratagene). The gene was sequenced and sub-cloned into the expression vector RC/RSV (Invitrogen). CHO (Chinese Hamster Ovary) cells were stably transfected with 10 μg of the D3/RSV plasmid using the DOTAP method from Boehringer Mannheim and 72 clones that were G418 resistant were isolated. Using mRNA and binding displacement data a single high expressing clone was identified. This clone was then grown in large batches for the purpose of developing a 96 well format assay.
• 1. One plate (10 cm) with approximately 2-3 million D3 cells per plate is incubated with 1 ml of Trypsin-EDTA at room temperature for ˜2 min or until cells have lifted off plates. Four ml of Ham's F12+10% Fetal Bovine Serum+1% Penicillin/Streptomycin+G418 (400 μg/ml) medium are added to resuspend cells and 1 ml of this is added to each large plate (15 cm) containing 19 ml of the same medium as mentioned above. • 2. The 5 large plates are incubated at 37° C.+5% CO2 for ˜3 days or until the cells are confluent. • 3. After these plates are confluent, they are split into 10 large plates. Medium is aspirated off, 2 ml of Trypsin-EDTA are added to each plate and plates are incubated at RT for 2 min or until cells have lifted off the plate. Eight ml of the F12 medium (same medium as #1 above) are added to each plate (10 ml total) to resuspend the cells and 5 ml are transferred to the 2 new plates containing 15 ml of the F12 media. • 4. The 10 large plates are incubated at 37° C.+5% CO2 for ˜2 days or until the cells are confluent. • 5. The 10 large plates are split into 60 large plates (using Trypsin-EDTA as #3 except 4 ml of F12 medium are added to resuspend cells and 1 ml is aliquoted to 6 new plates containing 19 ml of F12 medium each). • 6. Plates are incubated at 37° C.+5% CO2 for ˜3 days or until cell are confluent. • 7. The 60 large plates are then split into 60 roller bottles (100-150 million cells/bottle). Medium is aspirated off, 2 ml of Trypsin-EDTA are added to each plate and incubated at RT for ˜2 minutes or until cells have lifted off plates. Eight ml of F12 medium are added to each plate to resuspend cells and the entire 10 ml are added to 1 roller bottle containing 90 ml of the F12 medium. • 8. The 60 roller bottles are immediately placed on their sides and transferred to the roller bottle incubator. They are incubated at 37° C.+5% CO2 for ˜3-5 days. Cells are spun at 30-40% motor speed in the Form a incubator. • 9. Medium is poured off and cells are washed 2× in PBS. • 10. Cells are then scraped off in 20 ml of PBS and the bottles are rinsed again with 5 ml of PBS to remove any remaining cells. Cells are stored on ice before membrane preparation. • 11. The yield for 60 D3 roller bottles has varied from ˜260-500 mg. • Note: All tissue culture reagents are from Gibco-BRL. C. Membrane Preparation
The cells are harvested into 250 ml centrifuge tubes with 100 volumes of cold phosphate buffered saline (PBS) and spun down (1200×G for 10 min at 4° C.). The medium is removed and 100 ml PBS are added to each centrifuge tube, cells are resuspened and spun down again. The PBS is removed and the final pellet is homogenized in an appropriate volume of 10% DMSO with a polytron on ice at a medium setting.
A 200 μl sample membrane homogenate is added to 200 μl of 1% SDS, vortexed and allowed to stand for 5 min. Aliquots (25, 50 and 100 μl) of this mixture are assayed in duplicate following the standard Bio-Rad DC protein assay protocol (kit catalog number 500-0112) and using reagent S. Absorbance readings are made at 750 nm (note: the most accurate protein OD readings are between 0.1-0.5 units). […]

T1 sequence (P35462 whole entry): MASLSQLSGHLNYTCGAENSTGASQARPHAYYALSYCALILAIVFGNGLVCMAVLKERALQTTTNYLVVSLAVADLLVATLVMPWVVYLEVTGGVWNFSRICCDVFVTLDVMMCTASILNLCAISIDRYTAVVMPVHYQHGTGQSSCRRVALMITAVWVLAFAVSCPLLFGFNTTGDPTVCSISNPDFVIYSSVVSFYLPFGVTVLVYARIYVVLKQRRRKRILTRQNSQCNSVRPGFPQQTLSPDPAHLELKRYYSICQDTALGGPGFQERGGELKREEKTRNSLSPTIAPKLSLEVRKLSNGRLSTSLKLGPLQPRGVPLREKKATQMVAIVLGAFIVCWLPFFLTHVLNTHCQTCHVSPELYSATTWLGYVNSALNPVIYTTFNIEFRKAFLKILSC

SMILES | Ki (read-out: D3 Ki) [nM] | Ki (D3 Ki (nM)) [nM]
O=C(NCCCn1ccnc1)[C@@H]1C[C@H]1CN1CCN(c2n[nH]c3ccsc23)CC1 [compound 831315] | 29.3 | 
COc1ccc2c(c1)c(N1CCN(C[C@@H]3C[C@H]3C(=O)N3CCC(n4ccnc4)CC3)CC1)nn2C [compound 833123] | 26.3 | 
CC(C)(C)OC(=O)NCCN1CCN(C(=O)[C@@H]2C[C@H]2CN2CCN(c3csc4cc(C(F)(F)F)ccc34)CC2)CC1 [compound 833278] | 7.04 | 
O=C(NCCc1c[nH]cn1)[C@@H]1C[C@H]1CN1CCC(c2noc3ccsc23)CC1 [compound 831192] | 3.44 | 
O=C(C1CC1CN1CCC(c2noc3ccsc23)CC1)N1CCC(c2nc3ccccc3s2)CC1 (racemic) [compound 831702] | 27.9 | 
O=C(NCCCn1ccnc1)[C@@H]1C[C@H]1CN1CCN(c2nn(-c3ccc(F)cc3)c3ccsc23)CC1 [compound 832565] | 1.45 | 
CC(C)(C)OC(=O)N1CCCCC1CCNC(=O)[C@@H]1C[C@H]1CN1CCC(c2noc3ccsc23)CC1 (mixture of isomers) [compound 832533] | 4.12 | 
Cc1ccc(S(=O)(=O)n2nc(N3CCN(C[C@@H]4C[C@H]4C(=O)NCCCn4ccnc4)CC3)c3sccc32)cc1 [compound 831267] | 28.3 | 
CCC1CCC(NC(=O)C2CC2CN2CCN(C(=O)OC(C)(C)C)CC2)CC1 (racemic) [compound 827223] | 159 | 
O=C(NC1CCN(C(=O)c2ccc(Cl)nc2)CC1)C1CC1CN1CCC(c2noc3ccsc23)CC1 (racemic) [compound 832505] | 40.6 | 
O=C([C@@H]1C[C@H]1CN1CCC(c2noc3ccsc23)CC1)N1CCC(n2c(=O)[nH]c3ccccc32)CC1 [compound 832531] | 67.7 | 
COc1cccc2c(C3CCN(C[C@@H]4C[C@H]4C(=O)NCC45CC6CC(CC(C6)C4)C5)CC3)nn(C)c12 [compound 834057] | 89.4 | 
CN1CCN(CCCNC(=O)C2CC2CN2CCC(c3noc4ccsc34)CC2)CC1 (racemic) [compound 831741] | 125 | 
C[C@H]1CC[C@H](NC(=O)[C@@H]2C[C@H]2CN2CCN(c3nn(-c4ccccc4)c4ccsc34)CC2)CC1 [compound 832849] | 1.12 | 
O=C(NCCCN1CCCCC1)C1(CCN2CCN(c3csc4cc(C(F)(F)F)ccc34)CC2)CC1 [compound 833475] | 22.4 | 
O=C(NC1CCN(Cc2ccc(Cl)cc2)CC1)C1CC1CN1CCC(c2noc3ccsc23)CC1 (racemic) [compound 831997] | 3.55 | 
O=C(N[C@H]1CC[C@H](O)CC1)C1(CCN2CCN(c3csc4cc(C(F)(F)F)ccc34)CC2)CC1 [compound 832520] | 141 | 
O=C([C@@H]1C[C@H]1CN1CCC(c2noc3ccsc23)CC1)N1CCN(Cc2ccc(Cl)cc2)CC1 [compound 833128] | 26.7 | 
O=C([C@@H]1C[C@H]1CN1CCN(c2nc3cccc4c3n2CCC4)CC1)N1CCC(Cn2ccnc2)CC1 [A002437351] | 32.7 | 
O=C(C1CC1CN1CCC(c2noc3ccsc23)CC1)N1CCN(Cc2ccccc2)CC1 (racemic) [compound 832153] | 30.7 | 
COc1ccc2c(c1)c(N1CCN(C[C@@H]3C[C@H]3C(=O)NC3CCN(Cc4ccc(F)cc4)CC3)CC1)nn2C [compound 833835] | 0.499 | 
O=C(NCCc1ccccc1Cl)C1CC1CN1CCC(c2noc3ccsc23)CC1 (racemic) [compound 831798] | 46.3 | 
O=C(N[C@H]1CC[C@H](O)CC1)[C@@H]1C[C@H]1CN1CCN(c2nn(-c3ccc(OC(F)(F)F)cc3)c3ccsc23)CC1 [compound 833855] | 12.4 | 
C[C@H]1CC[C@H](NC(=O)[C@@H]2C[C@H]2CN2CCC(c3nn(C4CCCCC4)c4cc(C(F)(F)F)ccc34)CC2)CC1 [compound 833697] | 105 | 
CC(C)(C)OC(=O)N1CCCC(CNC(=O)[C@@H]2C[C@H]2CN2CCN(c3csc4cc(C(F)(F)F)ccc34)CC2)C1 (mixture of isomers) [compound 832501] | 41.4 | 

SMILES | Ki (read-out: D3 Ki) [nM] | Ki (D3 Ki (nM)) [nM]
O=C(NCCCn1ccnc1)[C@@H]1C[C@H]1CN1CCN(c2nn(-c3ccc(OC(F)(F)F)cc3)c3ccsc23)CC1 [compound 833333] | 8.11 | 
O=C(N[C@H]1CC[C@H](O)CC1)[C@@H]1C[C@H]1CN1CCN(c2nn(-c3ccccc3)c3ccsc23)CC1 [compound 832816] | 2.57 | 
O=C([C@@H]1C[C@H]1CN1CCN(c2csc3cc(C(F)(F)F)ccc23)CC1)N1CCN(CCOCCO)CC1 [compound 832581] | 67.3 | 
O=C([C@@H](O)CCN1CCC(c2noc3ccsc23)CC1)N1CCCCC1 [compound 830557] | 97.4 | 
CC1CCC(NC(=O)C2CCC2CN2CCC(c3noc4ccsc34)CC2)CC1 (racemic) [compound 829830] | 65.3 | 
COc1ccc2c(c1)c(N1CCN(C[C@@H]3C[C@H]3C(=O)NC3CCN(Cc4ccc(Cl)cc4)CC3)CC1)nn2C [compound 833834] | 0.333 | 
O=C(NCCCc1nc2ccccc2[nH]1)C1CC1CN1CCC(c2noc3ccsc23)CC1 (racemic) [compound 831622] | 34.6 | 
Cn1nc(C2CCN(C[C@@H]3C[C@H]3C(=O)NCC3CCNCC3)CC2)c2ccc(C(F)(F)F)cc21 [A002436288A] | 106 | 
O=C(C1CC1CN1CCC(c2noc3ccsc23)CC1)N1CCN(Cc2ccc3c(c2)OCO3)CC1 (racemic) [compound 832165] | 30.1 | 
COCCN1CCN(C(=O)C2CC2CN2CCC(c3noc4ccsc34)CC2)CC1 (racemic) [compound 832190] | 94.6 | 
O=C([C@@H]1C[C@H]1CN1CCC(c2noc3ccsc23)CC1)N1CCC2(CC1)OCCO2 [compound 829466] |  | 24.8
Cc1cccc(CN2CCC(NC(=O)[C@@H]3C[C@H]3CN3CCN(c4csc5cc(C(F)(F)F)ccc45)CC3)CC2)c1 [compound 832789] | 3.05 | 
CCC1CCC(NC(=O)C2CC2CN2CCN(c3ccc(OC)cc3)CC2C)CC1 (racemic) [compound 827231] | 60.6 | 
O=C(NCCCc1cc[nH]c1)[C@@H]1C[C@H]1CN1CCN(c2csc3cc(C(F)(F)F)ccc23)CC1 [compound 832494] | 25 | 
O=C([C@@H]1C[C@H]1CN1CCN(c2csc3cc(F)ccc23)CC1)N1CCC(O)CC1 [compound 828716] | 2.38 | 
CN(CCc1c[nH]c2ccccc12)C(=O)[C@@H]1C[C@H]1CN1CCC(c2noc3ccsc23)CC1 [compound 831278] | 18.1 | 
O=C(NCCCc1ccn(S(=O)(=O)c2ccccc2)c1)C1CC1CN1CCC(c2noc3ccsc23)CC1 (racemic) [compound 832185] | 7.87 | 
O=C(NCCCCc1ccccc1)[C@@H]1C[C@H]1CN1CCC(c2noc3ccsc23)CC1 [compound 831047] | 2.87 | 
COc1ccc2c(c1)c(N1CCN(C[C@@H]3C[C@H]3C(=O)NCCCn3ccnc3)CC1)nn2-c1ccc(C(F)(F)F)cc1 [compound 831313] | 134 | 
Cn1nc(N2CCN(C[C@@H]3C[C@H]3C(=O)NCCCn3cnc4ccccc43)CC2)c2sccc21 [A002202403] | 86.8 | 
O=C(NCCCn1ccnc1)[C@@H]1C[C@H]1CN1CCC(c2noc3ccsc23)CC1 [compound 829596] | 4.41 | 
O=C(OCc1ccccc1)N1CCN(C(=O)C2CC2CN2CCC(c3noc4ccsc34)CC2)CC1 (racemic) [compound 831453] | 18.3 | 
O=C(NC1CCN(Cc2ccccc2)CC1)C1CC1CN1CCC(c2noc3ccsc23)CC1 (racemic) [compound 831457] | 1.83 | 
O=C(NC1CCN(C(=O)Nc2ccc(Cl)cc2)CC1)[C@@H]1C[C@H]1CN1CCC(c2noc3ccsc23)CC1 [compound 833714] | 4.16 | 
